Values quoted from earlier work in patent US5639739A, “Imidazole containing aminoboronic acids” (The DuPont Merck Pharmaceutical Company, priority 1995, dated 1997).
Values belong to the compound of their own block, whether it stands above or below them.

What was measured:
thrombin = conditions: literature values
chymotrypsin = chymotrypsin (Bos taurus, UniProt P00766); conditions: Matteson et al. 1981
human thrombin = human thrombin (Homo sapiens, UniProt P00734)

- Ki (thrombin): 700 nM
Structure (SMILES): N#CC(CCCNC(=N)N)NC(=O)[C@@H]1CCCN1C(=O)[C@H](N)Cc1ccccc1 (stereo partly drawn) [D-phenylalanyl-prolyl-NHCH((CH2)3 NHC(=NH)NH2)--CN]

- Ki (chymotrypsin): 4000 nM
Structure (SMILES): CC(=O)N[C@@H](Cc1ccccc1)B(O)O [Acborophe-OH, R-1-acetamido-2-phenylethane boronic acid]

- kind of inhibition of human thrombin (human thrombin; Kettner and Shaw 1979): selective but irreversible inhibitor
Structure (SMILES): N=C(N)NCCC[C@H](NC(=O)[C@@H]1CCCN1C(=O)[C@H](N)Cc1ccccc1)C(=O)CCl [H-(D) Phe-Pro-ArgCH2 Cl]

- Ki (human thrombin; human thrombin, literature values): 75 nM
Structure (SMILES): N=C(N)NCCC[C@@H](C=O)NC(=O)[C@@H]1CCCN1C(=O)[C@H](N)Cc1ccccc1 [D-phenylalanyl-prolyl-arginal]
